This note sets out measurements from paper PMC12234328, “A naphthalimide derivative exerts potent antiplatelet and antithrombotic activities without a bleeding tendency” (Frontiers in Pharmacology, 2025).

Type in all cases: cell-based
Experiment [1] relates to collagen-triggered ATP release in human platelets. Briefly: ATP release in human platelet suspensions (luciferase/luciferin). As to conditions: 2.5 and 5 μM, collagen 1 μg/mL, n = 4. How it is done: Adenosine triphosphate (ATP) release and calcium mobilization were assessed as previously described ([Shih et al., 2021]). Luciferase–luciferin and Fura-2 AM were used to detect ATP release and calcium mobilization, respectively. The intensity of luminescence (indicating ATP release) and the fluorescence ratio (340 nm/380 nm) for calcium mobilization were measured using a Hitachi Spectrometer F-7000 (Tokyo, Japan) following the manufacturer’s instructions.
FIGURE 8 Effects of compound 6 on ATP release, calcium mobilization, and GPIIb–IIIa activation triggered by collagen in human platelets. Washed platelets (3.6 × 10^8 cells/mL) were treated with compound 6 (C6, 2.5 and 5 μM) or DMSO and then stimulated with collagen (1 μg/mL) to trigger ATP release (A), calcium mobilization (B), and GPIIb–IIIa activation (C) that were detected using luciferase/luciferin, Fura-2 AM, and APC–PAC1 antibodies, respectively. Data (A–C) are presented as means ± SEM (n = 4). **p < 0.01 and ***p < 0.001 compared with the resting group. #p < 0.05, ##p < 0.01, and ###p < 0.001 compared with the DMSO (solvent control) group.

The subject of experiment [2] is human platelet suspensions stimulated with convulxin. Briefly: Convulxin-induced platelet aggregation. As to conditions: 10–50 μM, convulxin 4 ng/mL. From the text:
(§1) This study received approval from the Taipei Medical University–Joint Institutional Review Board (TMU-JIRB-No. N202003148) and adhered to the principles of the Declaration of Helsinki. Informed consent was obtained from all volunteers before their participation. Human platelets were washed and prepared according to previously established methods ([Lu et al., 2019]). Whole blood was collected from healthy participants who had not taken any medications, including nonsteroidal anti-inflammatory drugs or aspirin, in the preceding 2 weeks. The blood was drawn into polypropylene tubes containing an acid citrate–dextrose solution (9:1, v/v). After mixing, the samples were centrifuged at 120 g for 10 min. The upper layer of platelet-rich plasma was collected and supplemented with prostaglandin E1 and heparin. Following further centrifugation at 500 g for 10 min, the platelet pellets were washed twice. The platelets were then resuspended in Tyrode’s solution containing 3.5 mg/mL bovine serum albumin (B.S.A.) to create platelet suspensions. The final Ca^2+ concentration of the platelet suspensions (3.6 × 10^8 cells/mL) was 1 mM.
Platelet aggregation was measured using a lumi-aggregometer (Payton, Scarborough, Canada) through the turbidimetric method ([Lu et al., 2019]). […] Subsequently, various agonists were added and platelet aggregation was then recorded for an additional 6 min. […]

The subject of experiment [3] is human platelet suspensions stimulated with collagen. Briefly: Collagen-induced platelet aggregation (turbidimetric, lumi-aggregometer).
Description: as §1
Platelet aggregation was measured using a lumi-aggregometer (Payton, Scarborough, Canada) through the turbidimetric method ([Lu et al., 2019]). Human platelet suspensions (3.6 × 10^8 cells/mL) were treated with compound 6 (1–50 μM) or an isovolumetric solvent control (0.1% DMSO) for 3 min. Subsequently, various agonists were added and platelet aggregation was then recorded for an additional 6 min.
FIGURE 2 Effects of compound 6 on human platelet aggregation triggered by various agonists. (A–C) Washed platelets (3.6 × 10^8 cells/mL) were treated with compound 6 (1–50 μM) or dimethyl sulfoxide (DMSO; solvent control) before adding 1 μg/mL collagen (A), 0.02 U/mL thrombin (B), and 1 μM U46619 (C). Panels A–C present the curve of platelet aggregation, and panel D presents the statistical analysis of panels A–C. Data (D) are presented as means ± SEM (n = 4). ###p < 0.001 compared with the DMSO group.

SMILES strings stand for the structures.

Broadly, the IC50 is the concentration needed to halve the response being measured. Low values mean greater potency, high ones weaker potency. Regarding `CCCCN1C(=O)c2cccc3c(NCCNC(=O)C45CC6CC(CC(C6)C4)C5)ccc(c23)C1=O` [compound 6], the “Collagen-triggered ATP release” value in experiment [1] is “markedly reduced”. For the same compound, the “Effect on convulxin-induced platelet aggregation” value in experiment [2] is “can inhibit convulxin-induced platelet aggregation”. Also, the “Antiplatelet effect at the same concentration, compound 6 versus compound 5” value in experiment [3] (5 μM, collagen 1 μg/mL, Supplementary Figure S1) is “better antiplatelet effects than compound 5”. The IC50 in experiment [3] (Platelet, washed human platelets, 1 μg/mL collagen) is approximately 2.5 µM. In addition, the “Potency in inhibiting collagen-induced platelet aggregation relative to compound 5” value in experiment [3] (comparison with ref Shih et al., 2021) is “twice as high”.
